The record followed here is patent US8158792B2, “Spiropiperidines for use as tryptase inhibitors” (Janssen Pharmaceutica N.V., priority 2007, dated 2012).

This assay has as its target human lung tryptase. Description: β-Tryptase In-Vitro Enzyme Assay. The class given is biochemical. The settings on record: human lung tryptase 1 nM, substrate H-D-HHT-Ala-Arg-pNa 500 μM, pH 7.4, room temperature. The protocol:
The β-tryptase assay was conducted with human lung tryptase (Cortex Biochem #CP3033) in an aqueous buffer (10 mM Tris, 10 mM Hepes, 150 mM NaCl, 0.1% PEG 8000, pH 7.4) using the chromogenic substrate H-D-HHT-Ala-Arg-pNa. […] Percent inhibition was calculated by comparing the initial reaction velocity of samples without inhibitor to those with inhibitor. The initial reaction velocities were analyzed using Microsoft Excel.
Turning to `Cn1cc(C(=O)N2CCC3(CC2)COc2ccc(CN)cc23)c2ccccc21` [Cpd 237, 1-(1-methyl-indol-3-yl)carbonyl-5′-aminomethyl-spiro[piperidine-4,3′-(2H)-benzo[b]furan]], 270 nM corresponded to half-maximal inhibition (IC50). As for `NCc1ccc2c(c1)C1(CCN(C(=O)NCc3ccccc3)CC1)CO2` [Cpd 263, 1-benzylaminocarbonyl-5′-aminomethyl-spiro[piperidine-4,3′-(2H)-benzo[b]furan]], the IC50 (commonly the concentration at which inhibition is half-maximal) came to 5100 nM. `CC1(C)CC(=O)c2c(SCc3ccccc3)sc(C(=O)N3CCC4(CC3)COc3ccc(CN)cc34)c2C1` [Cpd 232, 1-(3-benzylthio-4-oxo-6,6-dimethyl-6,7-dihydro-5H-benzo[c]thien-1-yl)carbonyl-5′-aminomethyl-spiro[piperidine-4,3′-(2H)-benzo[b]furan]] showed an IC50 of 15 nM. As for `O=CNCc1ccc2c(c1)C1(CCN(C(=O)c3ccc(C#Cc4ccccc4)o3)CC1)CO2` [Cpd 304, 1-(5-phenylethynyl-furan-2-yl)carbonyl-5′-formylaminomethyl-spiro[piperidine-4,3′-(2H)-benzo[b]furan]], it took 30 nM to reach half-maximal inhibition (IC50). As to `NCc1ccc2c(c1)C1(CCN(C(=O)Cc3ccc(Cl)cc3)CC1)CO2` [Cpd 91, 1-(4-chloro-benzyl)carbonyl-5′-aminomethyl-spiro[piperidine-4,3′-(2H)-benzo[b]furan]], the concentration for half-maximal inhibition (IC50) amounted to 480 nM. On to `NCc1ccc2c(c1)C1(CCN(C(=O)/C=C/c3cccc(F)c3F)CC1)CO2` [Cpd 312, (E)-1-(2,3-difluoro-phenylethenyl)carbonyl-5′-aminomethyl-spiro[piperidine-4,3′-(2H)-benzo[b]furan]], for which the IC50 is 590 nM. `CCCc1ccc(OCc2ccc(C(=O)N3CCC4(CC3)COc3ccc(CN)cc34)o2)c(OC)c1` [Cpd 212, 1-[5-(2-methoxy-4-propyl-phenoxymethyl)-furan-2-yl]carbonyl-5′-aminomethyl-spiro[piperidine-4,3′-(2H)-benzo[b]furan]] had an IC50 of 370 nM. The figure for `NCc1ccc2c(c1)C1(CCN(C(=O)/C(=C/c3ccccc3)c3ccccc3)CC1)CO2` [Cpd 190, (E)-1-(1-phenyl-2-phenylethenyl)carbonyl-5′-aminomethyl-spiro[piperidine-4,3′-(2H)-benzo[b]furan]] is 590 nM; for `NCc1ccc2c(c1)C1(CCN(C(=O)c3ccc(C#Cc4ccccc4)o3)CC1)CN2` [Cpd 319, 1-(5-phenylethynyl-furan-2-yl)carbonyl-5′-aminomethyl-spiro[piperidine-4,3′-(2H)-indole]] it is 26 nM; for `NCc1ccc2c(c1)C1(CCN(C(=O)c3ccc(Cl)c(I)c3)CC1)CO2` [Cpd 34, 1-(3-iodo-4-chloro-phenyl)carbonyl-5′-aminomethyl-spiro[piperidine-4,3′-(2H)-benzo[b]furan]] it is 20 nM. In the case of `CSc1sc(C(=O)N2CCC3(CC2)CN(S(=O)(=O)O)c2ccc(CN)cc23)c2ccccc12` [Cpd 350, 1-(3-methylthio-benzo[c]thien-1-yl)carbonyl-1′-hydroxysulfonyl-5′-aminomethyl-spiro[piperidine-4,3′-(2H)-indole]], the half-maximal inhibitory concentration (IC50) came out at 25 nM.

The compound `CC(C)(C)c1ccc(/C=C/C(=O)N2CCC3(CC2)COc2ccc(CN)cc23)cc1` [Cpd 268, (E)-1-(4-tert-butyl-phenylethenyl)carbonyl-5′-aminomethyl-spiro[piperidine-4,3′-(2H)-benzo[b]furan]] registered a 50% inhibitory concentration (IC50) of 2900 nM. The figure for `NCc1ccc2c(c1)C1(CCN(C(=O)c3cc(-c4ccc(Cl)cc4)cs3)CC1)CO2` [Cpd 357, 1-[4-(4-chloro-phenyl)-thien-2-yl]carbonyl-5′-aminomethyl-spiro[piperidine-4,3′-(2H)-benzo[b]furan]] is 280 nM; for `NCc1ccc2c(c1)C1(CCN(C(=O)c3cccc(C(F)(F)F)c3)CC1)CO2` [Cpd 47, 1-(3-trifluoromethyl-phenyl)carbonyl-5′-aminomethyl-spiro[piperidine-4,3′-(2H)-benzo[b]furan]] it is 820 nM; for `Cc1ccccc1C#Cc1ccc(C(=O)N2CCC3(CC2)COc2ccc(CN)cc23)o1` [Cpd 153, 1-[5-(2-methyl-phenylethynyl)-furan-2-yl]carbonyl-5′-aminomethyl-spiro[piperidine-4,3′-(2H)-benzo[b]furan]] it is 1.2 nM.

`NCc1ccc2c(c1)C1(CCN(C(=O)c3cc(Br)c(Br)s3)CC1)CN2S(=O)(=O)O` [Cpd 351, 1-(4,5-dibromo-thien-2-yl)carbonyl-1′-hydroxysulfonyl-5′-aminomethyl-spiro[piperidine-4,3′-(2H)-indole]] yielded an IC50 of 68 nM. This IC50 is about 57-fold higher than that of the compound before. Compound `Cc1nc(-c2ccccc2)sc1C(=O)N1CCC2(CC1)COc1ccc(CN)cc12` [Cpd 123, 1-(2-phenyl-4-methyl-thiazol-5-yl)carbonyl-5′-aminomethyl-spiro[piperidine-4,3′-(2H)-benzo[b]furan]] came in with an IC50 of 690 nM.

In turn, `NCc1ccc2c(c1)C1(CCN(C(=O)c3ccc(C#Cc4ccccc4)o3)CC1)CN2S(=O)(=O)c1ccccc1` [Cpd 341, 1-(5-phenylethynyl-furan-2-yl)carbonyl-1′-phenylsulfonyl-5′-aminomethyl-spiro[piperidine-4,3′-(2H)-indole]] returned an IC50 of 5.7 nM. `NCc1ccc2c(c1)C1(CCN(C(=O)c3ccccc3)CC1)CO2` [Cpd 36, 1-phenylcarbonyl-5′-aminomethyl-spiro[piperidine-4,3′-(2H)-benzo[b]furan]] had an IC50 of 820 nM.

Consider `NCc1ccc2c(c1)C1(CCN(Cc3ccc(Cl)c(Cl)c3)CC1)CO2` [Cpd 158, 1-(3,4-dichloro-benzyl)-5′-aminomethyl-spiro[piperidine-4,3′-(2H)-benzo[b]furan]], for which half-maximal inhibition (IC50) required 4500 nM.

For the compound `CSc1sc(C(=O)N2CCC3(CC2)COc2ccc(CN)cc23)c2ccccc12` [Cpd 234, 1-(3-methylthio-benzo[c]thien-1-yl)carbonyl-5′-aminomethyl-spiro[piperidine-4,3′-(2H)-benzo[b]furan]], the IC50 worked out at 9.5 nM. `Cc1cc(C(=O)NCc2ccc(C(=O)N3CCC4(CC3)COc3ccc(CN)cc34)o2)c(C)o1` [Cpd 156, 1-[5-(2,5-dimethyl-furan-3-yl-carbonylaminomethyl)-furan-2-yl]carbonyl-5′-aminomethyl-spiro[piperidine-4,3′-(2H)-benzo[b]furan]]: the half-maximal inhibitory concentration (IC50) was determined as 130 nM. With `NCc1ccc2c(c1)C1(CCN(C(=O)c3ccc(-c4ccc(Cl)cc4Cl)o3)CC1)CO2` [Cpd 136, 1-[5-(2,4-dichloro-phenyl)-furan-2-yl]carbonyl-5′-aminomethyl-spiro[piperidine-4,3′-(2H)-benzo[b]furan]], the IC50 turned out to be 25 nM.

`Cn1c(C(=O)N2CCC3(CC2)COc2ccc(CN)cc23)cc2ccccc21` [Cpd 193, 1-(1-methyl-indol-2-yl)carbonyl-5′-aminomethyl-spiro[piperidine-4,3′-(2H)-benzo[b]furan]]: the IC50 is 360 nM. `COC(=O)c1cccc(S(=O)(=O)N2CC3(CCN(C(=O)c4ccc(C#Cc5ccccc5)o4)CC3)c3cc(CN)ccc32)c1` [Cpd 344, 1-(5-phenylethynyl-furan-2-yl)carbonyl-1′-(3-methoxycarbonyl-phenyl)sulfonyl-5′-aminomethyl-spiro[piperidine-4,3′-(2H)-indole]] yielded an IC50 of 23 nM. The compound `C[C@H]1CC[C@H](C(=O)N2CCC3(CC2)COc2ccc(CN)cc23)CC1` [Cpd 38, 1-(trans-4-methyl-cyclohexyl)carbonyl-5′-aminomethyl-spiro[piperidine-4,3′-(2H)-benzo[b]furan]] had an IC50 of 650 nM.
